One data set addresses Nav 1.5 (Homo sapiens (Human), UniProt Q14524). In words: in-vitro Nav 1.5 PX data. The following applies: read-out: Nav 1.5 PX IC50.
In another data set the target is Nav 1.7 (Homo sapiens (Human), UniProt Q15858). In words: in-vitro Nav 1.7 PX data. It is filed as cell-based.

Like-named read-outs stand apart in the source and are kept apart here.

A word on the IC50: it is the concentration that gives 50% inhibition.

Chain of Nav 1.7 (Q15858 whole entry): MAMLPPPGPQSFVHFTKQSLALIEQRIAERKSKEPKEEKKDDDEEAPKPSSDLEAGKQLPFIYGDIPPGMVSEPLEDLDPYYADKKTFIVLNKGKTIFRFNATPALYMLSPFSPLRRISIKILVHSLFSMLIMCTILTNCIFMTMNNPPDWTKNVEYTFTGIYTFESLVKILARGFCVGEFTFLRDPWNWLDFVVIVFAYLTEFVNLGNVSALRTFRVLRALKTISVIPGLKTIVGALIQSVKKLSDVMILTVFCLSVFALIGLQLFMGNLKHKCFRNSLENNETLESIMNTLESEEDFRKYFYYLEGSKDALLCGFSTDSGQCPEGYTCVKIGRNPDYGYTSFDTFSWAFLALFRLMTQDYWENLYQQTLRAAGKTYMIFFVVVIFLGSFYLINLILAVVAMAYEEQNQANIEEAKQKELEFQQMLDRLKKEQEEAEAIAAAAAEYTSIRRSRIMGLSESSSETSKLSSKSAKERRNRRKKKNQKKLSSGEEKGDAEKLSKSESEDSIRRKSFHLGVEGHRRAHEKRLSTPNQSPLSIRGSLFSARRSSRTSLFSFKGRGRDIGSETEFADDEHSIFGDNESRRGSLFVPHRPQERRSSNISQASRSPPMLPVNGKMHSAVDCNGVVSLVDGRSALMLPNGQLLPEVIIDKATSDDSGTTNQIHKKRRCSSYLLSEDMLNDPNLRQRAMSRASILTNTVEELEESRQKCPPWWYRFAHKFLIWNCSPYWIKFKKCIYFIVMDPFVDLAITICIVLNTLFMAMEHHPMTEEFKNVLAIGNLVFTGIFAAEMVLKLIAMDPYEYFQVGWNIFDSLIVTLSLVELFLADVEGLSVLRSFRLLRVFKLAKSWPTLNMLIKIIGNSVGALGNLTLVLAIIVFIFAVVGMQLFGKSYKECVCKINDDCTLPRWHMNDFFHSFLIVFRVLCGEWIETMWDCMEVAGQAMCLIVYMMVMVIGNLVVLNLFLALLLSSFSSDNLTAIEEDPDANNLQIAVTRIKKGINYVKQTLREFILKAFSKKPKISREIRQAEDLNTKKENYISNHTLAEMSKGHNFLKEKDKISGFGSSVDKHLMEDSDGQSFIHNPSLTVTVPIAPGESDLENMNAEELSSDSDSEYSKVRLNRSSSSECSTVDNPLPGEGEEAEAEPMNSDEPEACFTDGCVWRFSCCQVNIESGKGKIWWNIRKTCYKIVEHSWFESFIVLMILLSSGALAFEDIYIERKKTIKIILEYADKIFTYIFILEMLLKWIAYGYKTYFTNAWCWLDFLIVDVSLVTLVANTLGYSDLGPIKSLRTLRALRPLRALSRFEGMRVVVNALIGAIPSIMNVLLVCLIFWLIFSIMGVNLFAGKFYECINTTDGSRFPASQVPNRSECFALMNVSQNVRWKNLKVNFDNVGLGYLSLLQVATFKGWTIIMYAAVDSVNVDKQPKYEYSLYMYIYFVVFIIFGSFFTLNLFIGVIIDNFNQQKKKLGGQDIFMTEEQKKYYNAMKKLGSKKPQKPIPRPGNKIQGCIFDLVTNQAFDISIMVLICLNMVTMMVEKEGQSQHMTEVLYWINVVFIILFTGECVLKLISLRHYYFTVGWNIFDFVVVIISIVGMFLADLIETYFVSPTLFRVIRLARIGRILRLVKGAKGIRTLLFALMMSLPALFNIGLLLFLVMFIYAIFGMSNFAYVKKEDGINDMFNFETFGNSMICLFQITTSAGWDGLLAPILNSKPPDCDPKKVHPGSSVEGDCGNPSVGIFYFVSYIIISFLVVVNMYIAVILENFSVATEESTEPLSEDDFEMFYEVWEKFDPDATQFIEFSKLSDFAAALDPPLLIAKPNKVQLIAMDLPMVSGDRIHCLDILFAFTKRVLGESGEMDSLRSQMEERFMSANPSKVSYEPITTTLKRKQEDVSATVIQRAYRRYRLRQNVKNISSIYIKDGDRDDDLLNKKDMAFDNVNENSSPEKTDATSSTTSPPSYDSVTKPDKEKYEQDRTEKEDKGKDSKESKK
Chain of Nav 1.5 (Q14524 whole entry): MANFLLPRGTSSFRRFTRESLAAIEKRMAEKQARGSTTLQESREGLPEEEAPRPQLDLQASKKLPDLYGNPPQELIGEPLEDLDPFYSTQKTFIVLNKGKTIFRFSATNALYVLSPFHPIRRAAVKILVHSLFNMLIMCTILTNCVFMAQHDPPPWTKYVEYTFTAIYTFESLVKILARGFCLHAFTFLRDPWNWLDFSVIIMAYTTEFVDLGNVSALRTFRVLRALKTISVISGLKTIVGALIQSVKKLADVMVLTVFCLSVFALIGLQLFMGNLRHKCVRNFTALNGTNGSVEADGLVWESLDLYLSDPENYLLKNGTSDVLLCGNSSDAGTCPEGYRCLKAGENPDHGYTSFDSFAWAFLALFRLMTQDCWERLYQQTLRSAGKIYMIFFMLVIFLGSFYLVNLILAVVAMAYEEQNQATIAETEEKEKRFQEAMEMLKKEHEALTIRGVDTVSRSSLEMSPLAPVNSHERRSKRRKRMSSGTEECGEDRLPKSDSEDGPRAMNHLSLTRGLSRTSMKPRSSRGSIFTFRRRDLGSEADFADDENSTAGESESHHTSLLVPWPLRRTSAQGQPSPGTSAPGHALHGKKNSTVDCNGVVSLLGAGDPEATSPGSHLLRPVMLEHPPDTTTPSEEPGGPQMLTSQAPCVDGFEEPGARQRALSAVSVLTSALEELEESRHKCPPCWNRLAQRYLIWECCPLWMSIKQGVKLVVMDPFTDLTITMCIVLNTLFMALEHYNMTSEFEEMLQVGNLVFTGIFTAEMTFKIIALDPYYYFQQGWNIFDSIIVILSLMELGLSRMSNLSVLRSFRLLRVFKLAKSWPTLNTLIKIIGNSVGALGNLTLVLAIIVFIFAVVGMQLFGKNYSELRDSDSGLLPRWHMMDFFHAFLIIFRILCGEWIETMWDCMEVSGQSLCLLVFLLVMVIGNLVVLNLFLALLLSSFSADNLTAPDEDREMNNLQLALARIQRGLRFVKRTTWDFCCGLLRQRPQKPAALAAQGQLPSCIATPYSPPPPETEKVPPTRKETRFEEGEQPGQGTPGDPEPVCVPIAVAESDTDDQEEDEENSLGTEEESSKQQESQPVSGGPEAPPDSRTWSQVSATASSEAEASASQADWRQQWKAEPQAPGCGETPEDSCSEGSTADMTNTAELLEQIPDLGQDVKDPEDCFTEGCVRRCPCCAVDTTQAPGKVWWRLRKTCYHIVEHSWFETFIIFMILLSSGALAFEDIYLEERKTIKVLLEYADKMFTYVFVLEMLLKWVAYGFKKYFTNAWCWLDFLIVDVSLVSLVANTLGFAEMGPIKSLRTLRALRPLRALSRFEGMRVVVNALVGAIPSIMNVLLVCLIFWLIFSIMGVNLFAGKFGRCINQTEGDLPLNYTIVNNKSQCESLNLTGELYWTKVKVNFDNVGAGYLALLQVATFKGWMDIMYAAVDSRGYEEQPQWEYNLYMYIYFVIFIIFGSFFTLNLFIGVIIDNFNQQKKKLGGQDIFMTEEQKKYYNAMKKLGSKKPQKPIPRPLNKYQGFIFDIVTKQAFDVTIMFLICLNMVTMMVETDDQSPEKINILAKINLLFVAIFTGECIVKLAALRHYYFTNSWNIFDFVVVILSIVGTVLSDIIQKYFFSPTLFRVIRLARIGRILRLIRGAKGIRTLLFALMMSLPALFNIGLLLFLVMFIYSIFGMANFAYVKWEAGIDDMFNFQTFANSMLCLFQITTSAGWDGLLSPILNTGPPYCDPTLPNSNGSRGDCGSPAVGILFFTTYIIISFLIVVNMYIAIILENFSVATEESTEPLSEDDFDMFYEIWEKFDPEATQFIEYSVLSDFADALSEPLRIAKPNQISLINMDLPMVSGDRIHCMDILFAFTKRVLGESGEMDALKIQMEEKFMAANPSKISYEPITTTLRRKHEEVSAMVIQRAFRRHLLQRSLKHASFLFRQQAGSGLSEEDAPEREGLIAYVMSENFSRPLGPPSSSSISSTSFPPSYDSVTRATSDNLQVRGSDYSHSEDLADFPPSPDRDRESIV

Take `COc1cc(-c2cc(F)cnc2OC)ccc1-c1nccc2cc(S(=O)(=O)Nc3ccon3)ccc12` [Example 31, 1-(4-(5-FLUORO-2-METHOXYPYRIDIN-3-YL)-2-METHOXYPHENYL)-N-(ISOXAZOL-3-YL)ISOQUINOLINE-6-SULFONAMIDE]: the IC50 on Nav 1.5 (in-vitro PX (PatchXpress) data) was above 10 µM; against Nav 1.7 (in-vitro PX (PatchXpress) data), 169 nM.
As to `COc1cc(-c2cccc(F)c2)c(Cl)cc1-c1nn(C)c(=O)c2cc(S(=O)(=O)Nc3nncs3)ccc12` [Example 215, 1-(2-chloro-3′-fluoro-5-methoxy-4-biphenylyl)-3-methyl-4-oxo-N-1,3,4-thiadiazol-2-yl-3,4-dihydro-6-phthalazinesulfonamide], the values for the IC50 on Nav 1.5 (in-vitro PX) and on Nav 1.7 (in-vitro PX) were above 10 µM and 82.3 nM, respectively.
In the case of `COc1cc(-c2ccc(F)c(Cl)c2)c(C#N)cc1-c1nccc2cc(S(=O)(=O)Nc3ccncn3)ccc12` [Example 158, 1-(3′-chloro-2-cyano-4′-fluoro-5-methoxy-4-biphenylyl)-N-4-pyrimidinyl-6-isoquinolinesulfonamide], the IC50 is 5.85 µM on Nav 1.5 (in-vitro Nav 1.5 PX data) and 19.4 nM on Nav 1.7 (in-vitro Nav 1.7 PX data).
With `COc1cc(Oc2ccc(F)c(F)c2)ccc1-c1nccc2cc(S(=O)(=O)Nc3ccncn3)ccc12` [Example 175, 1-(4-(3,4-difluorophenoxy)-2-methoxyphenyl)-N-4-pyrimidinyl-6-isoquinolinesulfonamide], the IC50 is above 10 µM at Nav 1.5 (in-vitro PX (PatchXpress) data) and 197 nM against Nav 1.7 (in-vitro PX (PatchXpress) data).
For the molecule `COc1cc(-c2cc(F)cc(F)c2)c(C)cc1-c1nccc2cc(S(=O)(=O)Nc3nncs3)ccc12` [Example 172, 1-(3′,5′-difluoro-5-methoxy-2-methyl-4-biphenylyl)-N-1,3,4-thiadiazol-2-yl-], the figures for the IC50 on Nav 1.5 (in-vitro Nav 1.5 PX data) and on Nav 1.7 (in-vitro Nav 1.7 PX data) were above 10 µM and 34.9 nM, respectively.
As for `COc1cc(-c2cc(C)cc(F)c2)c(C#N)cc1-c1nccc2cc(S(=O)(=O)Nc3nncs3)ccc12` [Example 222, 1-(2-cyano-3′-fluoro-5-methoxy-5′-methyl-4-biphenylyl)-N-1,3,4-thiadiazol-2-yl-6-isoquinolinesulfonamide], the IC50 at Nav 1.5 (in-vitro PX) is above 10 µM; against Nav 1.7 (in-vitro PX), 21.8 nM.
For the molecule `Cc1ccc(Oc2ccccc2)cc1-c1nccc2cc(S(=O)(=O)Nc3ccncn3)ccc12` [Example 39, 1-(2-METHYL-5-PHENOXYPHENYL)-N-(PYRIMIDIN-4-YL)ISOQUINOLINE-6-SULFONAMIDE], the figures for the IC50 on Nav 1.5 (in-vitro Nav 1.5 PX data) and against Nav 1.7 (in-vitro Nav 1.7 PX data) were above 10 µM and 488 nM, respectively.
`COc1cc(-c2ccc(C(F)(F)F)cc2)c(C#N)cc1-c1nccc2cc(S(=O)(=O)Nc3ccncn3)ccc12` [Example 185, 1-(2-cyano-5-methoxy-4′-(trifluoromethyl)-4-biphenylyl)-N-4-pyrimidinyl-6-isoquinolinesulfonamide]: the IC50 amounted to 20.7 µM at Nav 1.5 (in-vitro PX (PatchXpress) data) and 56 nM at Nav 1.7 (in-vitro PX (PatchXpress) data).
As to `COc1cc(Oc2ccc(C)c(C)c2)ccc1-c1nccc2cc(S(=O)(=O)Nc3ccncn3)ccc12` [Example 176, 1-(4-(3,4-dimethylphenoxy)-2-methoxyphenyl)-N-4-pyrimidinyl-6-isoquinolinesulfonamide], the IC50 at Nav 1.5 (in-vitro PX (PatchXpress) data) was above 10 µM; against Nav 1.7 (in-vitro PX (PatchXpress) data) it was 204 nM.
In the case of `COc1ccc(-c2ccc(C(F)(F)F)cc2)cc1-c1nccc2cc(S(=O)(=O)Nc3ccncn3)ccc12` [Example 147, 1-(4-methoxy-4′-(trifluoromethyl)-3-biphenylyl)-N-4-pyrimidinyl-6-isoquinolinesulfonamide], the concentration for half-maximal inhibition (IC50) was above 10 µM on Nav 1.5 (in-vitro Nav 1.5 PX data) and 71.9 nM at Nav 1.7 (in-vitro Nav 1.7 PX data).
Turning to `COc1nc(N2CCC(F)(F)CC2)c(Cl)cc1-c1nccc2cc(S(=O)(=O)Nc3nncs3)ccc12` [Example 244, 1-(5-chloro-6-(4,4-difluoro-1-piperidinyl)-2-methoxy-3-pyridinyl)-N-1,3,4-thiadiazol-2-yl-6-isoquinolinesulfonamide], the IC50 is above 30 µM on Nav 1.5 (in-vitro PX) and 424 nM against Nav 1.7 (in-vitro PX).
Turning to `COc1cc(-c2cc(F)cc(F)c2)c(Cl)cc1-c1nn(C)c(=O)c2cc(S(=O)(=O)Nc3ccon3)ccc12` [Example 233, 1-(2-chloro-3′,5′-difluoro-5-methoxy-4-biphenylyl)-N-3-isoxazolyl-3-methyl-4-oxo-3,4-dihydro-6-phthalazinesulfonamide], the IC50 at Nav 1.5 (in-vitro PX) is above 30 µM; against Nav 1.7 (in-vitro PX) it was 138 nM.
For the molecule `COc1cc(-c2cccc(F)c2)c(Cl)cc1-c1nccc2cc(S(=O)(=O)Nc3cccnn3)ccc12` [Example 120, 1-(2-chloro-3′-fluoro-5-methoxy-4-biphenylyl)-N-3-pyridazinyl-6-isoquinolinesulfonamide], the IC50 at Nav 1.5 (in-vitro PX data) was above 10 µM; against Nav 1.7 (in-vitro PX data), 141 nM.
On to `COc1cc(-c2cc(F)cc(F)c2)c(C#N)cc1-c1nccc2cc(S(=O)(=O)Nc3ccncn3)ccc12` [Example 28, 1-(2-CYANO-3′,5′-DIFLUORO-5-METHOXY-[1,1′-BIPHENYL]-4-YL)-N-(PYRIMIDIN-4-YL)ISOQUINOLINE-6-SULFONAMIDE], for which the IC50 on Nav 1.5 (in-vitro Nav 1.5 PX data) is above 10 µM; on Nav 1.7, 144 nM.
Consider `COc1cc(Oc2ccc(C)c(F)c2)ccc1-c1nccc2cc(S(=O)(=O)Nc3ccncn3)ccc12` [Example 177, 1-(4-(3-fluoro-4-methylphenoxy)-2-methoxyphenyl)-N-4-pyrimidinyl-6-isoquinolinesulfonamide], for which the results for the IC50 at Nav 1.5 (in-vitro PX (PatchXpress) data) and at Nav 1.7 (in-vitro PX (PatchXpress) data) were above 10 µM and 99.3 nM, respectively.
For `COc1cc(-c2cc(F)cc(F)c2)ccc1-c1nccc2cc(S(=O)(=O)Nc3nc(C)ns3)ccc12` [Example 130, 1-(3′,5′-difluoro-3-methoxy-4-biphenylyl)-N-(3-methyl-1,2,4-thiadiazol-5-yl)-6-isoquinolinesulfonamide], the IC50 on Nav 1.5 (in-vitro PX data) was above 30 µM; at Nav 1.7 (in-vitro PX data) it was 1040 nM.
As for `COc1cc(-c2cc(C)cc(Cl)c2)c(C#N)cc1-c1nccc2cc(S(=O)(=O)Nc3ccon3)ccc12` [Example 114, 1-(3′-chloro-2-cyano-5-methoxy-5′-methyl-4-biphenylyl)-N-3-isoxazolyl-6-isoquinolinesulfonamide], the results for the IC50 at Nav 1.5 (in-vitro PX data) and on Nav 1.7 (in-vitro PX data) were above 10 µM and 28.8 nM, respectively.
With `COc1cc(-c2ccc(C)c(F)c2)c(C#N)cc1-c1nccc2cc(S(=O)(=O)Nc3ccncn3)ccc12` [Example 163, 1-(2-cyano-3′-fluoro-5-methoxy-4′-methyl-4-biphenylyl)-N-4-pyrimidinyl-6-isoquinolinesulfonamide], the results for the IC50 at Nav 1.5 (in-vitro Nav 1.5 PX data) and on Nav 1.7 (in-vitro Nav 1.7 PX data) were above 10 µM and 92.1 nM, respectively.
As for `COc1cc(-c2cc(F)cc(F)c2)ccc1-c1nccc2cc(S(=O)(=O)Nc3ncon3)ccc12` [Example 127, 1-(3′,5′-difluoro-3-methoxy-4-biphenylyl)-N-1,2,4-oxadiazol-3-yl-6-isoquinolinesulfonamide], the IC50 was above 10 µM at Nav 1.5 (in-vitro PX data) and 106 nM on Nav 1.7 (in-vitro PX data).
`COc1cc(-c2ccc(Cl)c(C)c2)c(C#N)cc1-c1nccc2cc(S(=O)(=O)Nc3ccncn3)ccc12` [Example 161, 1-(4′-chloro-2-cyano-5-methoxy-3′-methyl-4-biphenylyl)-N-4-pyrimidinyl-6-isoquinolinesulfonamide]: the IC50 on Nav 1.5 (in-vitro Nav 1.5 PX data) is above 30 µM; at Nav 1.7 (in-vitro Nav 1.7 PX data) it was 17.4 nM.
Regarding `COc1cc(-c2cc(F)cc(F)c2)ccc1-c1nccc2cc(S(=O)(=O)Nc3cnsn3)ccc12` [Example 129, 1-(3′,5′-difluoro-3-methoxy-4-biphenylyl)-N-1,2,5-thiadiazol-3-yl-6-isoquinolinesulfonamide], the figures for the IC50 at Nav 1.5 (in-vitro PX data) and at Nav 1.7 (in-vitro PX data) were above 10 µM and 428 nM, respectively.
Take `COc1cc(-c2cc(F)cc(F)c2)ccc1-c1nccc2cc(S(=O)(=O)Nc3ncccn3)ccc12` [Example 123, 1-(3′,5′-difluoro-3-methoxy-4-biphenylyl)-N-2-pyrimidinyl-6-isoquinolinesulfonamide]: the results for the IC50 at Nav 1.5 (in-vitro PX data) and on Nav 1.7 (in-vitro PX data) were above 10 µM and 171 nM, respectively.
With `COc1cc(-c2cccc(C(F)(F)F)c2)c(C#N)cc1-c1nccc2cc(S(=O)(=O)Nc3ncon3)ccc12` [Example 118, 1-(2-cyano-5-methoxy-3′-(trifluoromethyl)-4-biphenylyl)-N-1,2,4-oxadiazol-3-yl-6-isoquinolinesulfonamide], the IC50 on Nav 1.5 (in-vitro PX data) is above 10 µM; on Nav 1.7 (in-vitro PX data), 21 nM.
“1-(5-cyano-4-(5-fluoro-2-methoxy-3-pyridinyl)-2-methoxyphenyl)-N-1,3,4-thiadiazol-2-yl-6-isoquinolinesulfonamide [Example 223]”: the IC50 on Nav 1.5 (in-vitro PX) is above 10 µM; at Nav 1.7 (in-vitro PX) it was 72.3 nM.
With `COc1cc(-c2ccc(Cl)c(F)c2)c(C#N)cc1-c1nccc2cc(S(=O)(=O)Nc3ccon3)ccc12` [Example 76, 1-(4′-chloro-2-cyano-3′-fluoro-5-methoxy-4-biphenylyl)-N-3-isoxazolyl-6-isoquinolinesulfonamide], the IC50 at Nav 1.5 (PatchXpress (PX), in vitro) is above 10 µM; against Nav 1.7 (PatchXpress (PX), in vitro) it was 58.5 nM.
In the case of `COc1cc(-c2cccc(Cl)c2)c(C#N)cc1-c1nccc2cc(S(=O)(=O)Nc3ccon3)ccc12` [Example 111, 1-(3′-chloro-2-cyano-5-methoxy-4-biphenylyl)-N-3-isoxazolyl-6-isoquinolinesulfonamide], the half-maximal inhibitory concentration (IC50) was above 10 µM at Nav 1.5 (in-vitro PX data) and 21.8 nM on Nav 1.7 (in-vitro PX data).
Regarding `COc1cc(-c2ccc(F)c(C)c2)c(C#N)cc1-c1nccc2cc(S(=O)(=O)Nc3nncs3)ccc12` [Example 230, 1-(2-cyano-4′-fluoro-5-methoxy-3′-methyl-4-biphenylyl)-N-1,3,4-thiadiazol-2-yl-6-isoquinolinesulfonamide], the half-maximal inhibitory concentration (IC50) was above 10 µM on Nav 1.5 (in-vitro PX) and 12.7 nM against Nav 1.7 (in-vitro PX).
On to `COc1nc(N2CCC(F)(F)C2)c(Cl)cc1-c1nccc2cc(S(=O)(=O)Nc3nncs3)ccc12` [Example 237, 1-(5-chloro-6-(3,3-difluoro-1-pyrrolidinyl)-2-methoxy-3-pyridinyl)-N-1,3,4-thiadiazol-2-yl-6-isoquinolinesulfonamide], for which the IC50 at Nav 1.5 (in-vitro PX) is above 30 µM; against Nav 1.7 (in-vitro PX), 336 nM.
On to `COc1cc(-c2cc(F)cnc2OC)ccc1-c1ccnc2cc(S(=O)(=O)Nc3nncs3)ccc12` [Example 209, 4-(4-(5-fluoro-2-methoxy-3-pyridinyl)-2-methoxyphenyl)-N-1,3,4-thiadiazol-2-yl-7-quinolinesulfonamide], for which the IC50 is above 10 µM at Nav 1.5 (in-vitro PX) and 328 nM on Nav 1.7 (in-vitro PX).

(Values after patent US9776995B2, “Bicyclic sulfonamide compounds as sodium channel inhibitors” (AMGEN INC., priority 2013, dated 2017).)
